Reference: patent US20240293413A1, “COMPOUND AND METHOD FOR TREATING CHEMOTHERAPY-RELATED GASTROINTESTINAL SIDE EFFECTS” (ONQUALITY PHARMACEUTICALS CHINA LTD., priority 2021, published 2024)

Experiments:
Assay type in all cases: in vivo
[1] = system: Chemotherapeutic agent-caused constipation models of Balb/c mice; assay: Examples 272-342 (Table 5): oral CDK inhibitor, relief of constipation caused by a chemotherapeutic agent; settings: cycle 8 days;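 further: percent of treated mice relieved versus chemotherapy group by feces reduction rate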
Source text: Construction of mouse animal models: Chemotherapeutic agent-caused constipation models of Balb/c mice were constructed according to the administration mode and frequency of the chemotherapeutic agent as shown in Table 5.
(§1) Balb/c mice were fed for 1 week, and then divided into groups. The experiment was divided into a control group, a chemotherapeutic agent group, and a CDK inhibitor group, each of which comprised 10 mice, to perform the administration experiment, for which the administration dosage, mode, time and frequency were shown in Table 5. The control group: being intragastrically administered with the same solvent as that used in the CDK inhibitor group (the time was shown in Table 5), and then being injected/intragastrically administered with the same solvent as that used in the chemotherapeutic agent group (the administration mode was shown in Table 5): the chemotherapeutic agent group: being intragastrically administered with the same solvent as that used in the CDK inhibitor group (the time was shown in […]), and then being injected/intragastrically administered with the chemotherapeutic agent (the type, administration mode and dosage were shown in Table 5): the CDK inhibitor group: being intragastrically administered with the CDK inhibitor (the time was shown in Table 5), and then being administered with the chemotherapeutic agent (the mode and dosage were shown in Table 5).
(§2) Feces reduction rate (%)=(the control group−the chemotherapeutic agent group or the CDK inhibitor group)/the control group*100%
(§3) The feces amount of mice within 3 hours was observed and recorded every day.

[2] = system: Chemotherapeutic agent-caused diarrhea models of Balb/c mice; assay: Examples 1-229 (Table 3): oral CDK inhibitor, relief of diarrhea caused by a chemotherapeutic agent;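 further: percent of treated mice whose diarrhea grade fell below chemotherapy-group average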
Source text: Construction of mouse animal models: Chemotherapeutic agent-caused diarrhea models of Balb/c mice were constructed according to the administration mode and frequency of the chemotherapeutic agent as shown in Table 3.
as §1, with “in Table 3. The control” for “in Table 5. The control”, “in Table 3), and then” for “in Table 5), and then”, “in Table 3): the chemotherapeutic” for “in Table 5): the chemotherapeutic”, “in Table 3); the CDK” for “in Table 5): the CDK”, “in Table 3).” for “in Table 5).”
(§4) The diarrhea grading of mice was observed and recorded every day.

[3] = system: diarrhea caused by a chemotherapeutic agent in Balb/c mice; assay: Examples 343-381 (Table 6): oral versus intravenous CDK inhibitor, relief of diarrhea caused by a chemotherapeutic agent; settings: for Relative remission rate: Example 369, Topotecan (TP) intramuscular injection 10 mg/kg single, 12 h before, cycle 10 days;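 on Relative remission rate: percent of treated mice whose diarrhea grade fell below chemotherapy-group average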
Source text: Balb/c mice were fed for 1 week, and then divided into groups. The experiment was divided into a control group, a chemotherapeutic agent group, and an oral administration group of a CDK inhibitor, and an intravenous injection group of a CDK inhibitor, each of which comprised 10 mice, to perform the administration experiment, for which the administration dosage, mode, time and frequency were shown in Table 6. The control group: being injected/intragastrically administered with the same solvent as that used in the CDK inhibitor group (the time was shown in Table 6), and then being injected/intragastrically administered with the same solvent as that used in the chemotherapeutic agent group (the administration mode was shown in Table 6): the chemotherapeutic agent group: being injected/intragastrically administered with the same solvent as that used in the CDK inhibitor group (the time was shown in Table 6), and then being injected/intragastrically administered with the chemotherapeutic agent (the type, administration mode and dosage were shown in Table 6): the oral administration group of the CDK inhibitor: being intragastrically administered with the CDK inhibitor (the time was shown in Table 6), and then being administered with the chemotherapeutic agent (the mode and dosage were shown in Table 6): the intravenous injection group of the CDK inhibitor: being injected with the CDK inhibitor through tail vein (the time was shown in Table 6), and then being administered with the chemotherapeutic agent (the mode and dosage were shown in Table 6).
as §4

[4] = system: constipation caused by a chemotherapeutic agent in Balb/c mice; assay: Examples 406-443 (Table 8): various administration modes of the CDK inhibitor, relief of constipation caused by a chemotherapeutic agent; settings: for Relative remission rate of other administration mode / Relative remission rate of oral administration: cycle 8 days; for improvement of constipation by oral administration, intraperitoneal injection, intramuscular injection, local administration: constipation caused by doxorubicin, etoposide, etoposide plus cisplatin, carboplatin, gemcitabine, gemcitabine plus carboplatin, under certain conditions, oral most significant;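 on Relative remission rate of oral administration: percent of treated mice relieved versus chemotherapy group by feces reduction rate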;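 on Relative remission rate of other administration mode: percent of treated mice relieved versus chemotherapy group by feces reduction rate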
Source text: Balb/c mice were fed for 1 week, and then divided into groups. The experiment was divided into a control group, a chemotherapeutic agent group, CDK inhibitor groups (including an oral administration group of a CDK inhibitor, an intravenous injection group of a CDK inhibitor, an intraperitoneal injection group of a CDK inhibitor, an intramuscular injection group of a CDK inhibitor, a local administration group of a CDK inhibitor), each of which comprised 10 mice, to perform the administration experiment, for which the administration dosage, mode, time and frequency were shown in Table 8. The control group: being administered with the same solvent as that used in the CDK inhibitor group (the time and mode were shown in Table 8), and then being injected/intragastrically administered with the same solvent as that used in the chemotherapeutic agent group (the administration mode was shown in Table 8): the chemotherapeutic agent group: being administered with the same solvent as that used in the CDK inhibitor group (the time and mode were shown in Table 8), and then being injected/intragastrically administered with the chemotherapeutic agent (the type, administration mode and dosage were shown in Table 8): the oral administration group of the CDK inhibitor: being intragastrically administered with the CDK inhibitor (the time was shown in Table 8), and then being administered with the chemotherapeutic agent (the mode and dosage were shown in Table 8): the intravenous injection group of the CDK inhibitor: being injected with the CDK inhibitor through tail vein (the time was shown in Table 8), and then being administered with the chemotherapeutic agent (the mode and dosage were shown in Table 8): the intraperitoneal injection group of the CDK inhibitor: being intraperitoneally injected with the CDK inhibitor (the time was shown in Table 8), and then being administered with the chemotherapeutic agent (the mode and dosage were shown in Table 8): the intramuscular injection group of the CDK inhibitor: being intramuscularly injected with the CDK inhibitor (the time was shown in Table 8), and then being administered with the chemotherapeutic agent (the mode and dosage were shown in Table 8); and the local administration group of the CDK inhibitor: the hair on the abdomen of mice was shaved (about 2 cm*2 cm), being applied with the CDK inhibitor (the time was shown in Table 8), and then being administered with the chemotherapeutic agent (the mode and dosage were shown in Table 8).
as §2, §3

In the case of CN[C@@H]1C[C@H]2O[C@@](C)([C@@H]1OC)n1c3ccccc3c3c4c(c5c6ccccc6n2c5c31)C(=O)N[C@H]4O [KRX-0601], the Relative remission rate ([1]; Example 334, Cytarabine (Ara-C) intramuscular injection 600 mg/kg single, CDK inhibitor oral 40 mg/kg single, 12 h before) is reported as 10%, the “Relative remission rate (%)” value ([2]; Example 165, Docetaxel (DTX) oral administration 30 mg/kg single, CDK inhibitor oral 250 mg/kg single 3 h before, cycle 8 days) is reported as 10% and the Relative remission rate ([3]; CDK inhibitor intravenous injection 250 mg/kg single) is reported as 10%. The Relative remission rate ([3]; CDK inhibitor oral 250 mg/kg single) was 20% and the “relief of diarrhea by oral administration and injection administration” value ([3]; diarrhea caused by etoposide, etoposide in combination with cisplatin, carboplatin, gemcitabine, gemcitabine in combination with carboplatin, and topotecan, oral administration has the most significant effect) was “effectively relieve diarrhea”.
With CNC(=O)c1nn(C)c2c1C(C)(C)Cc1cnc(Nc3ccc(N4CCN(C)CC4)cc3)nc1-2 [Milciclib] the Relative remission rate ([1]; Example 315, Docetaxel (DTX) intraperitoneal injection 15 mg/kg single, CDK inhibitor oral 60 mg/kg single, 0.5 h before) was 30%, the Relative remission rate ([1]; Example 316, Docetaxel (DTX) intraperitoneal injection 15 mg/kg single, CDK inhibitor oral 60 mg/kg single, 4 h before) was 20% and the Relative remission rate ([1]; Example 317, Docetaxel (DTX) intraperitoneal injection 15 mg/kg single, CDK inhibitor oral 60 mg/kg single, 8 h before) was 20%. For the same molecule, the Relative remission rate ([1]; Example 318, Docetaxel (DTX) intraperitoneal injection 15 mg/kg single, CDK inhibitor oral 60 mg/kg single, 12 h before) was 30%, the Relative remission rate ([1]; Example 319, Docetaxel (DTX) intraperitoneal injection 15 mg/kg single, CDK inhibitor oral 60 mg/kg single, 24 h before) was 10% and the Relative remission rate ([1]; Example 320, Docetaxel (DTX) intraperitoneal injection 15 mg/kg single, CDK inhibitor oral 60 mg/kg single, 48 h before) was 0%. For the same molecule, the “Relative remission rate (%)” value ([2]; Example 194, Gemcitabine 60 mg/kg and paclitaxel 10 mg/kg intraperitoneal injection single, CDK inhibitor oral 60 mg/kg single, 2 h before, 8 days) was 40%.
CC[C@H](CO)Nc1nc(NCc2ccccc2)c2ncn(C(C)C)c2n1 [Seliciclib] was tested, and the Relative remission rate ([1]; Example 321, Docetaxel (DTX) oral administration 30 mg/kg single, CDK inhibitor oral 400 mg/kg single, 3 h before) was 20%, the “Relative remission rate (%)” value ([2]; Example 46, Fluorouracil (5-Fu) intravenous injection 175 mg/kg single, CDK inhibitor oral 250 mg/kg single 2 h before, cycle 10 days) was 30% and the “Relative remission rate (%)” value ([2]; Example 118, Irinotecan (CPT-11) intraperitoneal injection 240 mg/kg single, CDK inhibitor oral 250 mg/kg single 6 h before, cycle 7 days) was 30%. The “Relative remission rate (%)” value ([2]; Example 195, Gemcitabine 60 mg/kg and paclitaxel 10 mg/kg intravenous injection single, CDK inhibitor oral 400 mg/kg single, 0.5 h before, 8 days) was 30%, the “Relative remission rate (%)” value ([2]; Example 199, Gemcitabine 60 mg/kg and paclitaxel 10 mg/kg intravenous injection single, CDK inhibitor oral 250 mg/kg single, 2 h before, 8 days) was 20% and the “Relative remission rate (%)” value ([2]; Example 200, Gemcitabine 60 mg/kg and paclitaxel 10 mg/kg intraperitoneal injection single, CDK inhibitor oral 250 mg/kg single, 6 h before, 8 days) was 40%. The “Relative remission rate of other administration mode” value ([4]; Example 442, Gemcitabine and Carboplatin oral administration 300 (G) 200 (C) mg/kg single, CDK inhibitor local administration 400 mg/kg single, 4 h before) was 10%, the “Relative remission rate of oral administration” value ([4]; Example 442, Gemcitabine and Carboplatin oral administration 300 (G) 200 (C) mg/kg single, CDK inhibitor oral 400 mg/kg single, 4 h before) was 20% and the “Relative remission rate of other administration mode” value ([4]; Example 443, Gemcitabine and Carboplatin oral administration 300 (G) 200 (C) mg/kg single, CDK inhibitor local administration 400 mg/kg single, 8 h before) was 10%. For the same molecule, the “Relative remission rate of oral administration” value ([4]; Example 443, Gemcitabine and Carboplatin oral administration 300 (G) 200 (C) mg/kg single, CDK inhibitor oral 400 mg/kg single, 8 h before) was 20% and the “improvement of constipation by oral administration, intraperitoneal injection, intramuscular injection, local administration” value [4] was “can significantly improve constipation”.
Roniciclib was tested, and the Relative remission rate ([1]; Example 322, Docetaxel (DTX) intramuscular injection 20 mg/kg single, CDK inhibitor oral 1 mg/kg single, 5 h before) was 10%, the “Relative remission rate (%)” value ([2]; Example 73, Oxaliplatin intraperitoneal injection 20 mg/kg single, CDK inhibitor oral 10 mg/kg single 6 h before, cycle 8 days) was 30% and the “Relative remission rate (%)” value ([2]; Example 117, Irinotecan (CPT-11) intraperitoneal injection 240 mg/kg single, CDK inhibitor oral 10 mg/kg single 6 h before, cycle 7 days) was 20%. For the same molecule, the “Relative remission rate of other administration mode” value ([4]; Example 420, Etoposide (Etop1) intravenous injection 100 mg/kg single, CDK inhibitor intraperitoneal injection 100 mg/kg single, 1 h before) was 10%, the “Relative remission rate of oral administration” value ([4]; Example 420, Etoposide (Etop1) intravenous injection 100 mg/kg single, CDK inhibitor oral 1 mg/kg single, 1 h before) was 20% and the “improvement of constipation by oral administration, intraperitoneal injection, intramuscular injection, local administration” value [4] was “can significantly improve constipation”.
